The values below come from patent publication US8680113B2, “BMI-1 protein expression modulators” (PTC Therapeutics, Inc., priority 2008, dated 2014).

In test [1] the test system is Bmi-1. The test can be described thus: Cell Model Assay: Bmi-1 expression in K562. The conditions noted are these: K562 (chronic myelogenous leukemia). In kind it is cell-based. On the procedure: (§1) Using assay conditions known to those skilled in the art, the ability of the compounds described herein to reduce Bmi-1 expression in HT1080 (fibrosarcoma), U87-MG (glioblastoma), T98G (glioblastoma), K562 (chronic myelogenous leukemia) and KG1 (acute myelogenous leukemia) cell lines was tested (at test compound concentrations calculated from the ELISA assay data shown in Example 1) compared to puromycin as a control to provide the EC50 values shown in Table 2. The term “ND” means that data was not determined.

The test system of test [2] is MCL-Rec1. Kind of test: Mantle Cell Lymphoma Assay: cytotoxicity, Rec-1. Conditions: 72 hrs. It is filed as cell-based. The source says: (§2) MCL cell lines Jeko, Mino, and Rec-1 were provided by American Type Culture Collection: The Bioresource Center (Manassas, Va.). […] Carlsbad, Calif.) in T-75 culture flasks. Cell concentration was maintained between 2 to 3×10^5 cells/mL. Early passage cells (passages 2-4) were used for all experiments. Ficoll-Histopaque density sedimentation (Sigma Aldrich) was used for separation of debris and purification of cell lines prior to experiments. […] The cytotoxic effect of test compounds on the MCL-cell lines was assessed by measuring cell concentration and cell viability using a Beckman Coulter Vi-Cell Counter. Controls and treated cells were harvested and counted at day 3.

For test [3], the system named is Bmi-1. The test can be described thus: Cell Model Assay: Bmi-1 expression in HT1080. In kind it is cell-based, human. Conditions: HT1080 (fibrosarcoma). Here is the method: as §1
The subject of test [4] is Bmi-1. Kind of test: Cell Model Assay: Bmi-1 expression in KG1. It is filed as cell-based. Conditions: KG1 (acute myelogenous leukemia). Here is the method: as §1
For test [5], the system named is MCL-Jeko. Kind of test: Mantle Cell Lymphoma Assay: cytotoxicity, Jeko. It is filed as cell-based. The conditions noted are these: MCL-Jeko, 72 hrs.
Source text: as §2

In test [6] the test system is MCL-Mino. The test can be described thus: Mantle Cell Lymphoma Assay: cytotoxicity, Mino. It is filed as cell-based. The conditions noted are these: MCL-Mino, 72 hrs.
Source text: as §2

For test [7], the system named is MM cell line. Kind of test: Multiple Myeloma Assay. In kind it is cell-based. The conditions noted are these: 72 hrs in culture.
The test system of test [8] is Bmi-1. The test can be described thus: Sandwich ELISA Assay (Bmi-1 ELISA in HT-1080 cells). In kind it is cell-based, human. The gist of the method:
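Lysate Bmi-1 was quantified against a recombinant GST-Bmi-1 standard (0-8000 pg/mL) by sandwich ELISA read at OD450 with OD570 reference. The ELISA used mouse monoclonal capture, rabbit anti-Bmi-1, HRP anti-rabbit IgG and TMB. Before lysis, HT-1080 cells seeded at 8000/well were exposed to compounds for 40-48 h at 37°C with 0.5% final DMSO.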
On the technique in general: An ELISA detects its analyte on a solid surface through an enzyme-linked reagent.

For orientation: EC50 means the concentration at which the effect is half-maximal. Low values mean higher potency in that assay, high ones lower potency in that assay. By IC50 is commonly meant the concentration at which inhibition is half-maximal. Lower therefore signals greater potency in that assay. As to `COc1cc(Br)c(Nc2nc(-c3cnc4ccc(Cl)cn34)cs2)c(Br)c1` [Cpd 24, 4-(6-chloroimidazo[1,2-a]pyridine-3-yl)-N-(2,6-dibromo-4-methoxyphenyl)thiazol-2-amine], the results for the EC50 in test [1], in test [3] and in test [4] were 0.076 µM, 0.31 µM and 0.12 µM, respectively. Also, the “Cell Concentration (×10^6)” value is 0.36 ± 0.02 ×10^6 in test [2] (MCL-Rec1, 0.004 μM); 0.34 ± 0.01 ×10^6 in test [2] (MCL-Rec1, 0.037 μM); 0.34 ± 0.01 ×10^6 in test [2] (MCL-Rec1, 0.11 μM); 0.31 ± 0.01 ×10^6 in test [2] (MCL-Rec1, 0.33 μM); 0.06 ± 0.01 ×10^6 in test [2] (MCL-Rec1, 1 μM); 0.01 ± 0.00 ×10^6 in test [2] (MCL-Rec1, 3 μM). In addition, the “Cell Concentration (×10^6)” value in test [5] (0.004 μM) is 1.95 ± 0.04 ×10^6; in test [5] (0.037 μM), 1.94 ± 0.02 ×10^6; in test [5] (0.11 μM) it was 1.92 ± 0.01 ×10^6; in test [5] (0.33 μM) it was 1.80 ± 0.03 ×10^6; in test [5] (1 μM), 0.76 ± 0.27 ×10^6; in test [5] (3 μM) it was 0.14 ± 0.01 ×10^6. Also, the “Cell Concentration (×10^6)” value in test [6] (0.004 μM) is given as 0.63 ± 0.01 ×10^6; in test [6] (0.037 μM) it was 0.63 ± 0.01 ×10^6; in test [6] (0.11 μM), 0.62 ± 0.01 ×10^6; in test [6] (0.33 μM), 0.55 ± 0.01 ×10^6; in test [6] (1 μM) it was 0.28 ± 0.02 ×10^6; in test [6] (3 μM) it was 0.05 ± 0.01 ×10^6. In addition, the “Cell Concentration, MM cell line” value in test [7] (dose 0.004 μM) is 1.37 ± 0.03 ×10^6; in test [7] (dose 0.037 μM) it was 1.38 ± 0.04 ×10^6; in test [7] (dose 0.11 μM), 1.23 ± 0.01 ×10^6; in test [7] (dose 0.33 μM), 0.59 ± 0.04 ×10^6; in test [7] (dose 1 μM) it was 0.34 ± 0.14 ×10^6; in test [7] (dose 3 μM), 0.17 ± 0.01 ×10^6. In test [8], this compound had a concentration for half-maximal inhibition (IC50) below 0.5 µM.

On to `Cc1cc(Br)c(Nc2nc(-c3cnc4ccc(Cl)cn34)cs2)c(Br)c1` [Cpd 25, 4-(6-chloroimidazo[1,2-a]pyridine-3-yl)-N-(2,6-dibromo-4-methylphenyl)thiazol-2-amine], for which the results for the half-maximal effective concentration (EC50) in test [1] and in test [4] were 0.1 µM and above 3 µM, respectively. In test [8], this compound displayed a half-inhibitory concentration (IC50) below 0.5 µM.

As to `COc1cc(Cl)c(Nc2nc(-c3cnc4ccc(Cl)cn34)cs2)c(Cl)c1` [Cpd 26, 4-(6-chloroimidazo[1,2-a]pyridine-3-yl)-N-(2,6-dichloro-4-methoxyphenyl)thiazol-2-amine], the EC50 in test [1] was found to be 0.234 µM; in test [4] it was 0.317 µM. In addition, the 50% inhibitory concentration (IC50) in test [8] fell in the range of 1 to 3 µM.

In the case of `COc1cccc(Nc2nccc(-c3cnc4ccccn34)n2)c1` [Cpd 28, 4-(imidazo[1,2-a]pyridine-3-yl)-N-(3-methoxyphenyl)pyrimidin-2-amine], the EC50 was determined as 0.261 µM in test [1] and 0.048 µM in test [4]. The same compound came in with a half-maximal inhibitory concentration (IC50) in test [8] below 0.5 µM.
